pIC50: −log10 of the molar value.
How the values were obtained:
[1] = test system: HepG2; assay: Antiproliferative activity against human HepG2 cells; format: functional, cell-based
[2] = Antiproliferative activity against human Hep2 cells; format: functional, cell-based; conditions: HEp-2

pIC50 [1]: 4.07
SMILES: Oc1ccc2[nH]cc(-c3cnc(-c4c[nH]c5ccc(O)cc45)cn3)c2c1
pIC50 [2]: 3.82

— ChEMBL document CHEMBL3758182, “Synthesis of Alocasin A” (J Nat Prod, 2015)
